# Data as given in US8435929B2, “1-aminocyclopropane carboxylic acid as a fruit thinner” (Valent BioSciences Corporation, priority 2009, dated 2013).
# How the values were obtained:
# [1] = test system: O'Henry peaches; experiment: Field thinning study, fruit set, fruit weight and crop safety of O'Henry peaches
# [2] = test system: cotton cotyledons; experiment: Cotton cotyledon bioassay, ethylene production; format: in vivo
# From the text: For laboratory and growth chamber studies, deionized ultra-pure water was used in preparing solutions. Spray solutions were used as soon as possible after mixing. All spray solutions were amended with spray adjuvants as appropriate. A cotton cotyledon bioassay was used in the laboratory to study the effects of ACC or ethephon on induction of ethylene. Ten day old cotton plants with fully expanded cotyledons were used. Sprays were made to the upper (adaxial) surface of the leaves and the plants were then incubated in growth cabinets at the temperatures indicated. The cotyledons were excised at the times indicated and placed in sealed plastic vials. Headspace ethylene samples were measured on a Hewlett Packard 5890 gas chromatograph equipped with a packed Haysep T column (Alltech, Deerfield, Ill.) and a flame ionization detector.
# Selected characteristics of ACC conversion to ethylene (i.e. dose response, time course, and temperature effect) were assessed to determine whether the relative consistence of ACC as a stone fruit and apple thinner was related to performance as an ethylene producer. In these bioassays, ACC solutions were applied to cotton cotyledons by a hand sprayer at the doses indicated and all spray solutions contained 0.05% (v/v) L-77.
# In the first study, the effect of ACC dose sprays on ethylene produced by cotton cotyledons was determined. (Table 16). Cotton plants were sprayed with solution (ACC at 1, 10, 25, 50, 100, 250, 500, or 1000 ppm) and the cotyledons were excised 6 or 24 h after spraying and incubated in sealed tubes for 4 h. Ethylene levels were determined production was assayed.
# In the second study, the time course of ethylene production following application of 500 mg/liter ACC or ethephon was determined (Table 17).
# In the third study, the effect of temperature on ethylene production following ACC or ethephon application was determined (Table 18). The incubation of the plants following spraying and the incubation of the detached leaves were performed at 25 and 35° C.
# [3] = test system: Summer Rich peaches; experiment: Field thinning study, fruit set, fruit weight and crop safety of Summer Rich peaches
# [4] = test system: Babygold #5 peach; experiment: Field thinning study, fruit set of Babygold #5 peach; format: in vivo
# Experimental: (§1) A series of field studies on stone fruit thinning were performed over several seasons, on different varieties and in various locations to determine the consistency of the thinning effect of ACC. Even without the application of a chemical thinning agent, crop load (number of fruit remaining divided by the number of flowers or fruit prior to application) was variable. Chemical thinning of stone fruit is variable and dependent on many factors including variety and environment. An acceptable chemical thinning agent is one that gives a substantial and relatively consistent reduction in crop load for a given dose over a wide range of trials.
# The effect of ACC rate and timing was determined. ACC was sprayed on Babygold #5 peach trees at bloom (Table 1) or shuck split (early fruitlet stage) (Table 2).
# [5] = test system: Pink Lady apples; experiment: Field thinning study, fruit set of Pink Lady apples; format: in vivo, apple; conditions: for Number of fruit per limb / Total number of fruit: 5 days after full bloom
# [6] = test system: Garnet Beauty peaches; experiment: Field thinning study, fruit set of Garnet Beauty peaches; format: in vivo, peach; conditions: application at petal fall
# Experimental: as §1
# Follow up studies confirmed that higher rates (500 or 750 ppm ACC) produced a moderate to heavy crop load on Babygold #5 at two locations (Tables 8 and 9) and Garnet Beauty (Table 10).
# [7] = test system: Babygold #5 peach; experiment: Field thinning study, fruit set of Babygold #5 peach; format: in vivo; remark: listed apart in the source
# [8] = test system: Tatura 204 peaches; experiment: Field thinning study, fruit set of Tatura 204 peaches; format: in vivo, peach; conditions: application at late shuck fall
# Experimental: as §1
# ACC was sprayed on Tatura 204 peach trees at late shuck fall (Table 3).
# [9] = 100 ppm, application at shuck split, 0.05% Regulaid adjuvant
# [10] = 300 ppm, application at shuck split, 0.05% Regulaid adjuvant
# [11] = 1000 ppm, application at shuck split, 0.05% Regulaid adjuvant
# [12] = 500 ppm, application at petal fall, trial of Table 4
# [13] = 500 ppm, application at petal fall, trial of Table 5 (other location)
# [14] = 750 ppm, application at petal fall, trial of Table 4
# [15] = 750 ppm, application at petal fall, trial of Table 5 (other location)
compound,measurement,setting,value
"NC1(C(=O)O)CC1 [ACC, 1-aminocyclopropane carboxylic acid]",Crop load (percent) of treated trees compared to the untreated control,[1]; 500 ppm at 15 mm fruit stage,38%
same,Crop safety on vegetation (0-4 scale),[1]; 500 ppm at 15 mm fruit stage,0.7 0-4 scale
same,Fruit weight at maturity,[1]; 500 ppm at 15 mm fruit stage,185 g
same,Percent fruit set,[1]; 500 ppm at 15 mm fruit stage,16%
same,Crop load (percent) of treated trees compared to the untreated control,[1]; 500 ppm at petal fall,79%
same,Crop safety on vegetation (0-4 scale),[1]; 500 ppm at petal fall,0 0-4 scale
same,Fruit weight at maturity,[1]; 500 ppm at petal fall,200 g
same,Percent fruit set,[1]; 500 ppm at petal fall,23%
same,Crop load (percent) of treated trees compared to the untreated control,[1]; 750 ppm at 15 mm fruit stage,21%
same,Crop safety on vegetation (0-4 scale),[1]; 750 ppm at 15 mm fruit stage,2.1 0-4 scale
same,Fruit weight at maturity,[1]; 750 ppm at 15 mm fruit stage,235 g
same,Percent fruit set,[1]; 750 ppm at 15 mm fruit stage,6%
same,Crop load (percent) of treated trees compared to the untreated control,[1]; 750 ppm at petal fall,55%
same,Crop safety on vegetation (0-4 scale),[1]; 750 ppm at petal fall,0.5 0-4 scale
same,Fruit weight at maturity,[1]; 750 ppm at petal fall,205 g
same,Percent fruit set,[1]; 750 ppm at petal fall,11%
same,Ethylene production,"[2]; 10 ppm, 6 h after spraying, 25 C",4.2 nl/g leaf weight/h incubated
same,Ethylene production,"[2]; 10 ppm, 24 h after spraying, 25 C",13.7 nl/g leaf weight/h incubated
same,Ethylene production,"[2]; 25 ppm, 6 h after spraying, 25 C",5.9 nl/g leaf weight/h incubated
same,Ethylene production,"[2]; 25 ppm, 24 h after spraying, 25 C",22.8 nl/g leaf weight/h incubated
same,Ethylene production,"[2]; 50 ppm, 6 h after spraying, 25 C",8.3 nl/g leaf weight/h incubated
same,Ethylene production,"[2]; 50 ppm, 24 h after spraying, 25 C",32.4 nl/g leaf weight/h incubated
same,Ethylene production,"[2]; 100 ppm, 6 h after spraying, 25 C",11.8 nl/g leaf weight/h incubated
same,Ethylene production,"[2]; 100 ppm, 24 h after spraying, 25 C",45.2 nl/g leaf weight/h incubated
same,Ethylene production,"[2]; 200 ppm, 24 h after application, incubated at 25 C",35.7 nl/g leaf weight/h incubated
same,Ethylene production,"[2]; 200 ppm, 24 h after application, incubated at 35 C",19.9 nl/g leaf weight/h incubated
same,Ethylene production,"[2]; 250 ppm, 6 h after spraying, 25 C",19.4 nl/g leaf weight/h incubated
same,Ethylene production,"[2]; 250 ppm, 24 h after spraying, 25 C",59.8 nl/g leaf weight/h incubated
same,Ethylene production,"[2]; 500 ppm, 1 h following spray application, 25 C (time course)",62.8 nl/g leaf weight/h incubated
same,Ethylene production,"[2]; 500 ppm, 4 h following spray application, 25 C (time course)",36.7 nl/g leaf weight/h incubated
same,Ethylene production,"[2]; 500 ppm, 6 h after spraying, 25 C",22.8 nl/g leaf weight/h incubated
same,Ethylene production,"[2]; 500 ppm, 15 h following spray application, 25 C (time course)",45.7 nl/g leaf weight/h incubated
same,Ethylene production,"[2]; 500 ppm, 24 h after spraying, 25 C",64.4 nl/g leaf weight/h incubated
same,Ethylene production,"[2]; 500 ppm, 24 h following spray application, 25 C (time course)",49.3 nl/g leaf weight/h incubated
same,Ethylene production,"[2]; 500 ppm, 48 h following spray application, 25 C (time course)",45.3 nl/g leaf weight/h incubated
same,Ethylene production,"[2]; 1000 ppm, 6 h after spraying, 25 C",25.1 nl/g leaf weight/h incubated
same,Ethylene production,"[2]; 1000 ppm, 24 h after spraying, 25 C",92.1 nl/g leaf weight/h incubated
same,Crop load (percent) of treated trees compared to the untreated control,[3]; 500 ppm at 15 mm fruit stage,34%
same,Crop safety on vegetation (0-4 scale),[3]; 500 ppm at 15 mm fruit stage,3.0 0-4 scale
same,Fruit weight at maturity,[3]; 500 ppm at 15 mm fruit stage,144 g
same,Percent fruit set,[3]; 500 ppm at 15 mm fruit stage,24%
same,Crop load (percent) of treated trees compared to the untreated control,[3]; 500 ppm at petal fall,55%
same,Crop safety on vegetation (0-4 scale),[3]; 500 ppm at petal fall,0.5 0-4 scale
same,Fruit weight at maturity,[3]; 500 ppm at petal fall,140 g
same,Percent fruit set,[3]; 500 ppm at petal fall,39%
same,Crop load (percent) of treated trees compared to the untreated control,[3]; 750 ppm at 15 mm fruit stage,24%
same,Crop safety on vegetation (0-4 scale),[3]; 750 ppm at 15 mm fruit stage,3.5 0-4 scale
same,Fruit weight at maturity,[3]; 750 ppm at 15 mm fruit stage,169 g
same,Percent fruit set,[3]; 750 ppm at 15 mm fruit stage,17%
same,Crop load (percent) of treated trees compared to the untreated control,[3]; 750 ppm at petal fall,39%
same,Crop safety on vegetation (0-4 scale),[3]; 750 ppm at petal fall,0.8 0-4 scale
same,Fruit weight at maturity,[3]; 750 ppm at petal fall,151 g
same,Percent fruit set,[3]; 750 ppm at petal fall,28%
same,Leaf yellowing and leaf loss,"[3]; application at petal fall, stated for both varieties (Summer Rich and O'Henry)",minimized leaf yellowing and leaf loss
same,Crop load (percent) of treated trees compared to the water control,"[4]; 100 ppm, application at bloom",90%
same,Crop load (percent) of treated trees compared to the water control,[4]; [9],102%
same,Crop load (percent) of treated trees compared to the water control,"[4]; 300 ppm, application at bloom",77%
same,Percent fruit set,"[4]; 300 ppm, application at bloom",57%
same,Percent fruit set,[4]; [10],61%
same,Crop load (percent) of treated trees compared to the water control,"[4]; 1000 ppm, application at bloom",40%
same,Percent fruit set,"[4]; 1000 ppm, application at bloom",30%
same,Percent fruit set,[4]; [11],11%
same,Number of fruit per limb,[5]; 100 ppm,64
same,Total number of fruit,[5]; 100 ppm,175
same,Number of fruit per limb,[5]; 300 ppm,62
same,Total number of fruit,[5]; 300 ppm,165
same,Number of fruit per limb,[5]; 500 ppm,61
same,Total number of fruit,[5]; 500 ppm,169
same,Number of fruit per limb,[5]; 1000 ppm,58
same,Total number of fruit,[5]; 1000 ppm,124
same,Crop load (in words),"[5]; highest rate tested (1000 ppm), early application (full bloom)",reduced crop load slightly
same,Crop load (percent) of treated trees compared to the untreated control,[6]; 500 ppm,82%
same,Percent fruit set,[6]; 500 ppm,27%
same,Crop load (percent) of treated trees compared to the untreated control,[6]; 750 ppm,58%
same,Percent fruit set,[6]; 750 ppm,19%
same,Percent fruit set,"[7]; 100 ppm, application at bloom",67%
same,Percent fruit set,[7]; [9],85%
same,Crop load (percent) of treated trees compared to the water control,[7]; [10],72%
same,Percent Fruit Set,"[7]; 500 ppm, 10 mm fruitlet timing",6.7%
same,Crop load (percent) of treated trees compared to the untreated control,[7]; [12],67%
same,Percent fruit set,[7]; [12],32%
same,Crop load (percent) of treated trees compared to the untreated control,[7]; [13],98%
same,Percent fruit set,[7]; [13],42%
same,Crop load (percent) of treated trees compared to the untreated control,[7]; [14],50%
same,Percent fruit set,[7]; [14],24%
same,Crop load (percent) of treated trees compared to the untreated control,[7]; [15],72%
same,Percent fruit set,[7]; [15],31%
same,Crop load (percent) of treated trees compared to the water control,[7]; [11],14%
same,Crop load (percent) of treated trees compared to the untreated control,[8]; 100 ppm,86%
same,Percent fruit set,[8]; 100 ppm,65%
same,Crop load (percent) of treated trees compared to the untreated control,[8]; 300 ppm,57%
same,Percent fruit set,[8]; 300 ppm,43%
same,Crop load (percent) of treated trees compared to the untreated control,[8]; 500 ppm,39%
same,Percent fruit set,[8]; 500 ppm,30%
same,Crop load (percent) of treated trees compared to the untreated control,[8]; 1000 ppm,36%
same,Percent fruit set,[8]; 1000 ppm,27%
